Patent US20250195714A1, “DEVICES AND METHODS OF TREATING WOUNDS” (University of Massachusetts, priority 2022, published 2025)
Entries after “also recorded” stand apart in the source; their conditions may differ.

Key:
[1] = system: chronic ulcers; assay: Chronic ulcers treated with similar TXA dressings; type: in vivo, Human
[2] = system: skin graft donor sites; assay: Human patients, skin-graft donor site treated with TXA embedded dressings without a drain; type: in vivo
Description: Human patients were treated with TXA embedded dressings. A 50 cm^2 partial thickness wound was generated with a dermatome, thereby creating the skin-graft donor site. […] Non-adherent sterile dressings (TIELLE™) were contacted with the solution and placed directly on the donor site dressing.
The wounds were covered with a semipermeable film ([…]™) without a drain. Normally a dermal drain is placed through the film into contact with the wound with the intention of collecting fluid. A total of 300 ml in 5 days is normally collected (60 ml per day=[…]).

[3] = system: scald injuries; assay: Scald injuries treated with similar TXA dressings; type: in vivo, Human
Description: In particular, a child with a scald was treated with TIELLE™ containing TXA and the dressing was removed after ten days.

[4] = system: rhytidoplasty (face lift); conditions: local TXA irrigation; first twenty-four hours after rhytidoplasty; cited from earlier work
[5] = system: keratinocyte and fibroblast cell cultures; conditions: short exposure to even high concentrations of topical TXA; cited from earlier work

In the case of `NC[C@H]1CC[C@H](C(=O)O)CC1` [TXA, tranexamic acid], the reepithelization [1] is reported as “near complete reepithelization”, the amount of exudate ([2]; 50 cm^2 partial thickness skin-graft donor site, one to two grams TXA in 10 ml normal saline on TIELLE dressing, TEGADERM film, no drain) is reported as “reducing significantly the amount of exudate; also recorded: greatly reduce exudate” and the bleeding ([2]; skin graft donor sites, topical TXA) is reported as “little bleeding”. The “adverse effect of TXA” value ([2]; skin-graft donor site, topical TXA dressing) was “no adverse effect”, the “re-epithelialization of the wound” value ([2]; skin-graft donor site, at removal of original dressing (12-14 days, 8-16 days)) was “re-epithelialized skin surface without the need for placement of a further dressing; also recorded: In most cases the wound was fully epithelialized; also recorded: rapid and complete or near complete re-epithelialization” and the reepithelization [3] was “near complete reepithelization”. For the same compound, the bleeding [4] was “decrease bleeding”, the drainage [4] was “reduce drainage” and the tolerance in vitro [5] was “well tolerated”.
